# Laboratory results as given in patent publication US5792466A, “Mimetic insect kinin analogs for insect control” (The United States of America, as represented by the …, priority 1996, dated 1998).
# pEC50: −log10 of the molar value. “Also recorded” adds a separate entry of the source. Like-named read-outs stand apart in the source and are kept apart here. Ends that are not written are not given here. Peptide text beside a SMILES is read from it. QP = not defined here
# What was measured:
# [1] = tested on: isolated Malpighian tubules of the cricket Acheta domesticus; conditions: cited from earlier work; for pEC50 / Cricket Malpighian tubule fluid secretion Maximum response (%): naturally occurring achetakinins; for pEC50: read-out: Cricket (Acheta domesticus) Malpighian tubule fluid secretion EC50; for Cricket Malpighian tubule fluid secretion Maximum response (%): literature reference (6)
# [2] = tested on: isolated Leucophaea maderae cockroach hindgut; conditions: cited from earlier work; for potency in hindgut myotropic assay relative to parent or natural insect kinins: literature (Holman et al., 1987; Nachman et al., 1994); for Cockroach (Leucophaea maderae) hindgut contraction threshold (pM) ± (S.D.): naturally occurring achetakinins, Holman et al., 1990, reference (12)
# [3] = tested on: isolated Leucophaea maderae cockroach hindgut; assay: Cockroach hindgut myotropic bioassay; format: cell-based; conditions: for potency in the cockroach hindgut myotropic assay relative to the most potent of the achetakinins (AK-IV): comparison of threshold concentrations; for Cockroach (Leucophaea maderae) hindgut contraction threshold (pM) ± (S.D.): minimum concentration evoking observable change in contractions, Aib analogs; for threshold activities on the isolated cockroach hindgut bioassay: values in M
# Method: Leucophaea maderae cockroaches were taken from stock colonies maintained at 27° C. and fed dry dog food ad lib. Cockroach hindguts, free of central nervous system (CNS) tissue, were dissected, immersed in saline, and prepared for recording of myogenic activity as previously described [Holman et al., 1991, Insect Biochem., 21(1):107-112]. Threshold concentrations were determined for each analogue by adding a known quantity of peptide (dissolved in 0.5 ml bioassay saline) to the bioassay chamber containing the hindgut and observing the response on a Gould 2200S oscillograph recorder. The quantity of the peptide analogues was calculated from the values obtained for Phe in the amino acid analysis. The threshold concentration was defined as the minimum concentration of peptide in the chamber required to evoke an observable change in the frequency (50%) or amplitude of contractions (5%) within 1 min and sustained for 3 min. Threshold concentrations were obtained from five cockroach hindguts on 5 consecutive days for each peptide. Quantitative data for dose-response plots were obtained as previously described (Holman et al., 1991, ibid).
# [4] = tested on: isolated Malpighian tubules of the cricket Acheta domesticus; assay: Cricket Malpighian tubule secretion bioassay; format: cell-based; conditions: for Cricket Malpighian tubule fluid secretion Maximum response (%): percentage of the response to a supermaximal dose (10 nM) of achetakinin-I, Aib analogs
# Description: Crickets were reared as described (Clifford et al., 1977, Ann. Entomol. Soc. Am., 70:69-74) and fed a diet of turkey starter crumbs. Water was provided ad lib. Malpighian tubules were removed from 6-12-day-old adult virgin females. Single tubules were isolated in vitro as described (Coast, G. M., 1988, Physiol. Entomol., 13:381-391). After a 40-min equilibration period, the bathing fluid was changed and the rate of secretion, in picoliters per millimeter length of tubule per minute (pl/mm/min), was determined over 40 min (control rate). Thereafter, the bathing fluid was exchanged for one containing the assay material and the rate of secretion was determined over an additional 40-min period (experimental rate). Diuretic activity was calculated as the difference between control and experimental rates, and results are expressed as a percentage of the response obtained with a supermaximal dose (10 nM) of achetakinin-I assayed alongside the test analogues. All experiments were performed at room temperature (21°-24° C.) (Coast et al., 1990, ibid).
# [5] = tested on: angiotensin converting enzyme (ACE) from the housefly Musca domestica; assay: ACE enzyme hydrolysis trials; format: in vitro ADME; conditions: pH 8.3, 37° C., over 120 minutes
# Method: Musca ACE (Mr, 67,000) was purified from a soluble extract of adults as described elsewhere (Cornell et al., J. Biol. Chem., in press; Lamango and Isaac, J. Biol. Chem., in press) and yielded enzyme which appeared as a single band by SDS-PAGE. Unless otherwise stated, peptides (12-750 μM, final concentration) were incubated with Musca ACE in 100 mM Tris/HCl, pH 8.3 in the presence of 10 μM ZnCl2 and 0.3M NaCl at 37° C. Reactions (15 μl) were terminated either by heating to 100° C. for 5 min or by the addition of 5 μl of 8% (v/v) TFA, followed by centrifugation (13000 g, Microcentaur) for 2 min and diluted to 100 μl with 0.1% (v/v) TFA before HPLC analysis.
# HPLC analysis was performed using a Pharmacia SuperPac Pep-S column (250 mm×4 mm, internal diameter) packed with 5 μm ODS particles. The solvent system comprised elution with 5% acetonitrile in 0.1% (v/v) trifluoroacetic acid for 3 min, followed by a linear increase of the acetonitrile component from 3 to 41% in 11 min (total run time of 14 min).
# [6] = tested on: angiotensin converting enzyme (ACE) from the housefly Musca domestica; conditions: cited from earlier work
# [7] = Lamango et al., Peptides, submitted
compound,measurement,setting,value
FYPWG-NH2 [Phe--Tyr--Pro--Trp--Gly--NH2],potency in cricket Malpighian tubule secretion assay relative to parent nonapeptide,"[1]; Coast et al., 1990",equipotent with the parent nonapeptide
same,potency in hindgut myotropic assay relative to parent or natural insect kinins,[2],equipotent with the parent nonapeptide
KFFPWG-NH2 [Lys--Phe--Phe--Pro--Trp--Gly--NH2],potency in hindgut myotropic assay relative to parent or natural insect kinins,[2],more active than the pentapeptide core and/or the naturally occurring insect kinins
"CC(C)(NC(=O)[C@H](Cc1ccccc1)NC(=O)[C@H](Cc1ccccc1)NC(=O)[C@H](CCCCNC(=O)[C@@H]1CCC(=O)N1)NC(=O)[C@@H]1CCC(=O)N1)C(=O)N[C@@H](Cc1c[nH]c2ccccc12)C(=O)NCC(N)=O [pGlu--Lys(pGlu)--Phe--Phe--Aib--Trp--Gly--NH2] (HELM PEPTIDE1{[Glp].K.F.F.[Aib].W.G.[am]}|PEPTIDE2{[Glp]}$PEPTIDE1,PEPTIDE2,2:R3-1:R2$$$V2.0)",potency in the cockroach hindgut myotropic assay relative to the most potent of the achetakinins (AK-IV),[3],three orders of magnitude less potent
same,Cockroach (Leucophaea maderae) hindgut contraction threshold (pM) ± (S.D.),[3],"28,000 pM"
same,threshold activities on the isolated cockroach hindgut bioassay,[3],28000 pM
same,Cricket Malpighian tubule fluid secretion Maximum response (%),[4],103%
"AFHSWG-NH2 [AK-V, A--Phe--His--Ser--Trp--Gly--NH2]",pEC50,"[1]; Coast et al., 1990",10.74
same,Cricket Malpighian tubule fluid secretion Maximum response (%),[1],88%
same,Cockroach (Leucophaea maderae) hindgut contraction threshold (pM) ± (S.D.),[2],43 pM
CC(C)(NC(=O)[C@H](Cc1ccccc1)NC(=O)[C@@H](N)Cc1ccccc1)C(=O)N[C@@H](Cc1c[nH]c2ccccc12)C(=O)NCC(N)=O [Phe--Phe--Aib--Trp--Gly--NH2] (HELM PEPTIDE1{F.F.[Aib].W.G.[am]}$$$$V2.0),potency in the cockroach hindgut myotropic assay relative to the most potent of the achetakinins (AK-IV),[3],roughly half as potent
same,potency in the cockroach hindgut myotropic assay relative to the most potent of the achetakinins (AK-IV),[3]; listed as first analog,one half as potent
same,Cockroach (Leucophaea maderae) hindgut contraction threshold (pM) ± (S.D.),[3],100 pM
same,threshold activities on the isolated cockroach hindgut bioassay,[3],100 pM
same,potency in the Malpighian tubule assay relative to the most potent naturally occurring achetakinin (AK-IV) / endogenous insect kinins,[4]; comparison of EC50 values,greater potency than the endogenous insect kinins
same,Cricket Malpighian tubule fluid secretion Maximum response (%),[4],99%
same,hydrolysis by angiotensin converting enzyme (ACE),[5],complete resistance to ACE; also recorded: complete resistance to hydrolysis
CC(C)(NC(=O)[C@H](Cc1ccccc1)NC(=O)[C@H](Cc1ccccc1)NC(=O)[C@H](CCCCN)NC(=O)[C@@H]1CCC(=O)N1)C(=O)N[C@@H](Cc1c[nH]c2ccccc12)C(=O)NCC(N)=O [pGlu--Lys--Phe--Phe--Aib--Trp--Gly--NH2] (HELM PEPTIDE1{[Glp].K.F.F.[Aib].W.G.[am]}$$$$V2.0),potency in the cockroach hindgut myotropic assay relative to the most potent of the achetakinins (AK-IV),[3],an order of magnitude more potent
same,Cockroach (Leucophaea maderae) hindgut contraction threshold (pM) ± (S.D.),[3],3.5 pM
same,threshold activities on the isolated cockroach hindgut bioassay,[3],3.5 pM
same,Cricket Malpighian tubule fluid secretion Maximum response (%),[4],101%
QP--Phe--His--Ser--Trp--Gly--NH2 ({QP}-FHSWG-NH2; reading uncertain; also: printed as QP--Phe--His--Ser--Trp--Gly--NH2) [Cus-DP-I],hydrolysis by ACE,[6]; [7],hydrolyze
"NFKFNPWG-NH2 [AK-IV, NFK--Phe--Asn--Pro--Trp--Gly--NH2]",pEC50,"[1]; Coast et al., 1990",10.62
same,Cricket Malpighian tubule fluid secretion Maximum response (%),[1],96%
same,Cockroach (Leucophaea maderae) hindgut contraction threshold (pM) ± (S.D.),[2],180 pM
"AYFSPWG-NH2 [AK-II, AY--Phe--Ser--Pro--Trp--Gly--NH2]",pEC50,"[1]; Coast et al., 1990",10.66
same,Cricket Malpighian tubule fluid secretion Maximum response (%),[1],91%
same,Cockroach (Leucophaea maderae) hindgut contraction threshold (pM) ± (S.D.),[2],48 pM
SKYVSQK-Phe--Phe--Ser--Trp--Gly--NH2 [Cus-DP-III],hydrolysis by ACE,[6],hydrolyze
"SGADFYPWG-NH2 [AK-I, SGAD--Phe--Tyr--Pro--Trp--Gly--NH2]",pEC50,"[1]; Coast et al., 1990",10.11
same,Cricket Malpighian tubule fluid secretion Maximum response (%),[1],86%
same,Cockroach (Leucophaea maderae) hindgut contraction threshold (pM) ± (S.D.),[2],82 pM
"ALPFSSWG-NH2 [AK-III, ALP--Phe--Ser--Ser--Trp--Gly--NH2]",pEC50,"[1]; Coast et al., 1990",9.49
same,Cricket Malpighian tubule fluid secretion Maximum response (%),[1],108%
same,Cockroach (Leucophaea maderae) hindgut contraction threshold (pM) ± (S.D.),[2],270 pM
"DPGFSSWG-NH2 [LK-II, DPG--Phe--Ser--Ser--Trp--Gly--NH2]",hydrolysis by ACE,[6]; [7],hydrolyze
"NNANVFYPWG-NH2 [Cus-DP-II, NNANV-Phe--Tyr--Pro--Trp--Gly--NH2]",hydrolysis by ACE,[6]; [7],hydrolyze
